One experiment concerns the target T1, TbrCatL (Trypanosoma brucei rhodesiense, UniProt Q95PM0).
T1 construct: Conor Caffrey (University of California San Diego)
Description: TbrCatL enzymatic inhibition assay (cleavage of fluorogenic substrate Z-FR-AMC). It counts as biochemical. The following applies: for TbrCatL 0’ Inhibition: 0’ (pre-incubation time); for TbrCatL 0’ Inhibition / TbrCatL 10’ Inhibition: sheet "Screening results"; for TbrCatL 10’ Inhibition: 10’ (pre-incubation time); for TbrCatL Inhibition 0’: 0’ (no pre-incubation); for TbrCatL Inhibition 0’ / TbrCatL Inhibition 10’: sheet Screening results; for TbrCatL Inhibition 10’: 10’ (pre-incubation). The gist of the method: (§1)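 Recombinant enzymes assayed by Z-Phe-Arg-AMC cleavage at 25 °C, fluorescence 340/440 nm over 5–7 min, with 10 min or no enzyme–compound preincubation.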

The target of the next experiment is cruzain (Trypanosoma cruzi, UniProt P25779). Description: biochemical. The settings on record: for Cruzain 0’ Inhibition: 0’ (pre-incubation time); for Cruzain 0’ Inhibition / Cruzain 10’ Inhibition: sheet "Screening results"; for Cruzain 10’ Inhibition: 10’ (pre-incubation time); for Cruzain Inhibition 0’: 0’ (no pre-incubation); for Cruzain Inhibition 0’ / Cruzain Inhibition 10’: sheet Screening results; for Cruzain Inhibition 10’: 10’ (pre-incubation). The gist of the method:
as §1

SMILES strings stand for the structures.
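Further: at 5 µM compound concentration.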

Sequence of cruzain (P25779 123-337 limits assumed): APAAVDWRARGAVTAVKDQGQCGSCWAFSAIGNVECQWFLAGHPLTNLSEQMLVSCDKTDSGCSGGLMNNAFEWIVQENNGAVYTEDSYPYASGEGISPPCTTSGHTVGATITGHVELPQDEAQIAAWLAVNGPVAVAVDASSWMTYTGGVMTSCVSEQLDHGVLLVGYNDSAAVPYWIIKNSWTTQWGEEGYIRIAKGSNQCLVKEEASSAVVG
T1 sequence (Q95PM0 entry or part of it): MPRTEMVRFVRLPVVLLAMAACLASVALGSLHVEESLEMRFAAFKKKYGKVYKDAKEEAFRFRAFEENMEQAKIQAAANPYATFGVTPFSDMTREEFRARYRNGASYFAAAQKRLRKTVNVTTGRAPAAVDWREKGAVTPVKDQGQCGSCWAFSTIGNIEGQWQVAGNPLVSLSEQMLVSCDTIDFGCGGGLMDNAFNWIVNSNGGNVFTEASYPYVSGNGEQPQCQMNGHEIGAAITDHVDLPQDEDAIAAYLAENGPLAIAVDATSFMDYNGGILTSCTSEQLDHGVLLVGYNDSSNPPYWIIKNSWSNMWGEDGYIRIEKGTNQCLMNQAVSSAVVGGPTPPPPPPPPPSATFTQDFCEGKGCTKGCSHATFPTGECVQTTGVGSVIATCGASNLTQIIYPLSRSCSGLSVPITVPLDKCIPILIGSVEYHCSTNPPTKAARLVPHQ

As to `O=C(Nc1ccccc1)c1ccc(-c2cc3ccncc3cc2OC2CCNCC2)s1` [MMV024035], at TbrCatL, the “TbrCatL 0’ Inhibition” value is listed as -3% and the “TbrCatL 10’ Inhibition” value was -5%. At cruzain, the “Cruzain 0’ Inhibition” value came out at 5% and the “Cruzain 10’ Inhibition” value is on record as -6.5%.

Turning to `OCc1ccc(-c2cncc(Nc3cccc(Cl)c3)c2)cc1` [MMV026468], on TbrCatL, the “TbrCatL 0’ Inhibition” value amounted to 1.7% and the “TbrCatL 10’ Inhibition” value was 2.7%. On cruzain, the “Cruzain 0’ Inhibition” value worked out at 0% and the “Cruzain 10’ Inhibition” value was determined as 2.8%.

For `Cc1cc(Nc2ccncc2)n2nc(C)c(-c3ccccc3Cl)c2n1` [MMV016136], on TbrCatL, the “TbrCatL Inhibition 0’” value was 3.2% and the “TbrCatL Inhibition 10’” value is 6%. Besides, on cruzain, the “Cruzain Inhibition 0’” value came to 4.7% and the “Cruzain Inhibition 10’” value is listed as 4.5%.

As to `FC(F)(F)c1cccc(-c2nc3c(NCc4ccncc4)nccc3[nH]2)c1` [MMV032967], at TbrCatL, the “TbrCatL 0’ Inhibition” value was -7% and the “TbrCatL 10’ Inhibition” value is 1.3%. At cruzain, the “Cruzain 0’ Inhibition” value was -4.6% and the “Cruzain 10’ Inhibition” value is given as -2.4%.

On to `COc1nc2ccc(Br)cc2cc1[C@@H](c1ccccc1)[C@@](O)(CCN(C)C)c1cccc2ccccc12` [MMV689758], for which, on TbrCatL, the “TbrCatL Inhibition 0’” value is 9% and the “TbrCatL Inhibition 10’” value is reported as -1.4%. Moreover, on cruzain, the “Cruzain Inhibition 0’” value was 19% and the “Cruzain Inhibition 10’” value is given as 10%.

In the case of `CC1CCCCN1C(=O)NCCc1coc(-c2ccc(F)cc2)n1` (centres unmarked) [MMV688797], at TbrCatL, the “TbrCatL Inhibition 0’” value is reported as 16% and the “TbrCatL Inhibition 10’” value came out at 15%. Besides, on cruzain, the “Cruzain Inhibition 0’” value was found to be 15% and the “Cruzain Inhibition 10’” value was determined as 10%.

On to `COc1ccc(-c2cnc3ccc(NCc4ccc(S(N)(=O)=O)cc4)nn23)cn1` [MMV010545], for which, at TbrCatL, the “TbrCatL 0’ Inhibition” value is recorded as -3.2% and the “TbrCatL 10’ Inhibition” value worked out at 7%. In addition, at cruzain, the “Cruzain 0’ Inhibition” value stood at 0.8% and the “Cruzain 10’ Inhibition” value worked out at 3.6%.

Turning to `Cc1cc(Cl)c(S(=O)(=O)N2CCCC2)cc1OCC(=O)NC1CCCCC1` [MMV006833], on TbrCatL, the “TbrCatL 0’ Inhibition” value was determined as 1.6% and the “TbrCatL 10’ Inhibition” value amounted to 11%. Besides, on cruzain, the “Cruzain 0’ Inhibition” value is listed as 3% and the “Cruzain 10’ Inhibition” value was 8%.

As for `Cc1[nH]c2ccccc2c1C(c1cccs1)N1CCN(C)CC1` (centres unmarked) [MMV688768], at TbrCatL, the “TbrCatL Inhibition 0’” value is on record as 0.9% and the “TbrCatL Inhibition 10’” value turned out to be 2.4%. Further, on cruzain, the “Cruzain Inhibition 0’” value was determined as 2.7% and the “Cruzain Inhibition 10’” value worked out at 9%.

As for `CCOc1ccc2cc(-c3nn(C(C)(C)C)c(N)c3C(N)=O)cnc2c1` [MMV688853], at TbrCatL, the “TbrCatL Inhibition 0’” value worked out at 7% and the “TbrCatL Inhibition 10’” value is recorded as -4%. At cruzain, the “Cruzain Inhibition 0’” value is 5.4% and the “Cruzain Inhibition 10’” value was 4%.

For the compound `Nc1ncc(-c2ccc(C(F)(F)F)nc2)cc1-c1ccc(C(F)(F)F)nc1` [MMV668727], on TbrCatL, the “TbrCatL Inhibition 0’” value is listed as 6.6% and the “TbrCatL Inhibition 10’” value is recorded as -4.6%. In addition, at cruzain, the “Cruzain Inhibition 0’” value stood at 11% and the “Cruzain Inhibition 10’” value was -3%.

Take `CCOc1ccc(OCC(=O)Nc2cc(C)cc(C)c2)cc1` [MMV676470]: on TbrCatL, the “TbrCatL 0’ Inhibition” value is on record as -0.9% and the “TbrCatL 10’ Inhibition” value was determined as 4%. Further, at cruzain, the “Cruzain 0’ Inhibition” value stood at 6% and the “Cruzain 10’ Inhibition” value is 9%.

Turning to `Cc1cc(C)cc(COc2ccc3c(C)c(CCC(=O)O)c(=O)oc3c2C)c1` [MMV676476], on TbrCatL, the “TbrCatL Inhibition 0’” value is on record as -17% and the “TbrCatL Inhibition 10’” value is -2.6%. At cruzain, the “Cruzain Inhibition 0’” value is 1.9% and the “Cruzain Inhibition 10’” value was -3.3%.

`CC1COC(Cn2cncn2)(c2ccc(Oc3ccc(Cl)cc3)cc2Cl)O1` (centres unmarked) [MMV688943]: on TbrCatL, the “TbrCatL Inhibition 0’” value is 15% and the “TbrCatL Inhibition 10’” value is 4%. Besides, on cruzain, the “Cruzain Inhibition 0’” value was 13% and the “Cruzain Inhibition 10’” value is reported as 10%.

(Values after publication PMC9967275, “Screening the Pathogen Box to Discover and Characterize New Cruzain and TbrCatL Inhibitors” (Pathogens, 2023).)
